Tests used:
[1] = molecular target: human sphingosine-1-phosphate receptor 1 (S1P1) (Homo sapiens (Human), UniProt P21453); experiment: Inhibition of cAMP production (HTRF cAMP HiRange), S1P1 CHO-K1 cells; type: cell-based; settings: for hS1P1 cAMP pEC50: inhibition of cAMP production, S1P1 CHO-K1 cells; for Emax: CHO-K1, efficacy (SPAN) normalized to fingolimod, read-out: hS1P1 cAMP SPAN
Procedure, shortened: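 CHO-K1 cells stably co-expressing human S1P1 (C-terminal Prolink tag) and EA-β-arrestin2 were grown in AssayComplete Media 6 at 37° C. and 5% CO2, plated, and incubated overnight. Agonist-driven inhibition of intracellular cAMP was read by TR-FRET with the HTRF cAMP HiRange kit on a PheraStar reader. Potency is pEC50, and efficacy (SPAN) is normalized to fingolimod.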

[2] = test system: paclitaxel induced peripheral neuropathy; experiment: Reversal of allodynia induced by paclitaxel in mice (s.c. or p.o., von Frey frequency method); type: in vivo, c57bl/6 mice; settings: Mus musculus; for inhibition in vivo at 3 mg/kg: po, 1 h, 3 mg/kg p.o., tested 60 min after dosing, read-out: Screen @ 3 mg/kg po (% MPE); for inhibition in vivo at 1 mg/kg: sc, 0.5 h, 1 mg/kg s.c., tested 30 min after dosing, read-out: Screen @ 1 mg/kg sc (% MPE)
Procedure, shortened: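 Neuropathy was induced in mice by paclitaxel (6 mg/kg i.p., days 1, 3, 5, 7) or oxaliplatin (4 mg/kg i.p., days 1-5), with re-testing about 14 days later. Compounds were given s.c. (tested at 30 min) or p.o. (tested at 60 min; paclitaxel only). A 0.4 g von Frey filament was applied ten times per paw, and % non-response was converted to % MPE.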

[3] = molecular target: human sphingosine-1-phosphate receptor 3 (S1P3) (Homo sapiens (Human), UniProt Q99500); experiment: Inhibition of cAMP production (HTRF), S1P3 CHO-K1 cells; type: cell-based; settings: for hS1P3 cAMP pEC50: inhibition of cAMP production; for Emax: CHO-K1, efficacy normalized to fingolimod, read-out: hS1P3 cAMP SPAN
hERG channel = hERG channel (Homo sapiens (Human), UniProt Q12809); experiment: Automated Qpatch patch-clamp hERG assay
Sequence of hERG channel (Q12809 whole entry): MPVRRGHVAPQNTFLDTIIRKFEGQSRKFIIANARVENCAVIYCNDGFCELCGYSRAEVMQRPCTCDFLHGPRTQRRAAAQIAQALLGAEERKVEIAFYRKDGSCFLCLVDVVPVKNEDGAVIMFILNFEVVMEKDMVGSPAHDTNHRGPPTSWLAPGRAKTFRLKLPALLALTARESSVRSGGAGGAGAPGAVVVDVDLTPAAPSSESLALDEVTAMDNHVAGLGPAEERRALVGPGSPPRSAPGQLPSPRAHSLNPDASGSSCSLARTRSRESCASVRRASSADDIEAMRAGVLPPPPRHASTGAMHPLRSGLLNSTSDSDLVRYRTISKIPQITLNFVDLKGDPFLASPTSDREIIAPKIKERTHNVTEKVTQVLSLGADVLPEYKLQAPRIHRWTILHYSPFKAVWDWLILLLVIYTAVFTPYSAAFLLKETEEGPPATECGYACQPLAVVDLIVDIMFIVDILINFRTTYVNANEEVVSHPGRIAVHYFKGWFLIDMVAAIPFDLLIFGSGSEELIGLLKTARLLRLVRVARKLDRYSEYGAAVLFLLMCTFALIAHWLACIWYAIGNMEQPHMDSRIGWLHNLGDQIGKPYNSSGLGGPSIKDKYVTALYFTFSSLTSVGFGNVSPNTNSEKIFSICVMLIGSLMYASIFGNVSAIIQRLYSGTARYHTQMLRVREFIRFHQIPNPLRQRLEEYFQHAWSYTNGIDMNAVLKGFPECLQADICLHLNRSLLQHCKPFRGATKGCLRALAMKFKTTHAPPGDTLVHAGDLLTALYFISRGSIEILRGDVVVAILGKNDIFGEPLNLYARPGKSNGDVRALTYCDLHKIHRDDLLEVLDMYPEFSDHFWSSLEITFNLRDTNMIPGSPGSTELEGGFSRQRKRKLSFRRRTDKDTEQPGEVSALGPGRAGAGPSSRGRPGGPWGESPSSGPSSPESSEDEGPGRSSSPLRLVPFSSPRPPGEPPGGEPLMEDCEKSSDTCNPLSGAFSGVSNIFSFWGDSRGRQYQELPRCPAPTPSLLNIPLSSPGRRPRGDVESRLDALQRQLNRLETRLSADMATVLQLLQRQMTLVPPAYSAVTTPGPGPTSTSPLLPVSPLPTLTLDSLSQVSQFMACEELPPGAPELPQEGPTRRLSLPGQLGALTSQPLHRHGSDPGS

Sequence of human sphingosine-1-phosphate receptor 3 (S1P3) (Q99500 whole entry): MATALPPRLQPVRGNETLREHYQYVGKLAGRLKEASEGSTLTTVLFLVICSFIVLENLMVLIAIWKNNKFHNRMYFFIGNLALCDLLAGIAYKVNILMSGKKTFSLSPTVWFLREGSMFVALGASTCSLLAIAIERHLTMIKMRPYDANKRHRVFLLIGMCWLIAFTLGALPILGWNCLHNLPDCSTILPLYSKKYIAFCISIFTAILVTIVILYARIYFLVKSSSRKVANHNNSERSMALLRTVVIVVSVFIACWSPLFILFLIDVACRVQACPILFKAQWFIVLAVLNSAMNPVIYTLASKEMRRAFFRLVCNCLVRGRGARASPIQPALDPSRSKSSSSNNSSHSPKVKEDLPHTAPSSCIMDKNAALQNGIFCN
Sequence of human sphingosine-1-phosphate receptor 1 (S1P1) (P21453 whole entry, looked up): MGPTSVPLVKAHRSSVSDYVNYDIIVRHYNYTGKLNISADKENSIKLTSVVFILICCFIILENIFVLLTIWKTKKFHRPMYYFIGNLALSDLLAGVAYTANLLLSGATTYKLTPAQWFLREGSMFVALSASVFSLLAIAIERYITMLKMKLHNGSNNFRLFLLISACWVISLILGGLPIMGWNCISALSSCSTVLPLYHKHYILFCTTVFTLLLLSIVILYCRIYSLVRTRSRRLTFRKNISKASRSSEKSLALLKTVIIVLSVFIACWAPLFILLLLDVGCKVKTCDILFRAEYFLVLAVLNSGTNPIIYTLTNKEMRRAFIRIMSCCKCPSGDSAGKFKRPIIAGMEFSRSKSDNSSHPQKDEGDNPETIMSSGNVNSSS

| SMILES | hS1P1 cAMP pEC50 [1] | inhibition in vivo at 3 mg/kg [2] | inhibition in vivo at 1 mg/kg [2] | hS1P3 cAMP pEC50 [3] | IC50 (hERG channel) | Emax [1] | Emax [3] |
| --- | --- | --- | --- | --- | --- | --- | --- |
| COc1ccc(-c2noc(-c3ccc4c(c3)nnn4CC(C)(C)O)n2)c(C)c1 [Compound 26, 1-{5-[3-(4-methoxy-2-methylphenyl)-1,2,4-oxadiazol-5-yl]-1H-1,2,3-benzotriazol-1-yl}-2-methylpropan-2-ol] | >6.5 | < 50% | < 50% | <5.0 | > 10 µM |  |  |
| Cc1ccccc1-c1nc(-c2ccc3c(c2)nnn3C(C)C)no1 [Compound 99, 3-(1-isopropyl-1H-benzo[d][1,2,3]triazol-5-yl)-5-(o-tolyl)-1,2,4-oxadiazole] | >6.5 | > 50% | > 50% | <5.0 |  |  |  |
| CCC1(CC)CC(=O)c2cc(-c3nc(-c4cccnc4)no3)ccc2O1 [Compound 103, 2,2-diethyl-6-[3-(pyridin-3-yl)-1,2,4-oxadiazol-5-yl]-3,4-dihydro-2H-1-benzopyran-4-one] | >6.5 | > 50% | > 50% | <5.0 |  | > 75% | < 50% |
| CCC1(CC)CC(=O)c2cc(-c3nc(-c4cccnc4OC)no3)ccc2O1 [Compound 147, 2,2-diethyl-6-(3-(2-methoxypyridin-3-yl)-1,2,4-oxadiazol-5-yl)chroman-4-one] | >6.5 |  | > 50% | <5.0 |  | > 75% | < 50% |
| CCC1(CC)CC(=O)c2cc(-c3nc(-c4ccncc4OC)no3)ccc2O1 [Compound 212, 2,2-diethyl-6-(3-(3-methoxypyridin-4-yl)-1,2,4-oxadiazol-5-yl)chroman-4-one] | >6.5 |  | > 50% | <5.0 |  | > 75% | < 50% |
| COc1ccccc1-c1nc(-c2ccc3c(c2)nnn3C(C)C)no1 [Compound 287, 3-(1-isopropyl-1H-benzo[d][1,2,3]triazol-5-yl)-5-(2-methoxyphenyl)-1,2,4-oxadiazole] | >6.5 |  | < 50% | <5.0 |  |  |  |
| Cc1ccccc1-c1noc(-c2ccc3c(c2)nnn3C(C)C)n1 [Compound 293, 5-[3-(2-methylphenyl)-1,2,4-oxadiazol-5-yl]-1-(propan-2-yl)-1H-1,2,3-benzotriazole] | >6.5 |  | > 50% | <5.0 |  | > 75% | < 50% |
| CC(C)n1nnc2cc(-c3nc(-c4cccc5c4OCCC5)no3)ccc21 [Compound 304, 3-chroman-8-yl-5-(1-isopropylbenzotriazol-5-yl)-1,2,4-oxadiazole] | >6.5 |  | > 50% | >5.0 | > 10 µM |  |  |
| CC(C)n1nnc2cc(-c3nc(-c4ccncc4C(F)(F)F)no3)ccc21 [Compound 455, 1-(propan-2-yl)-5-{3-[3-(trifluoromethyl)pyridin-4-yl]-1,2,4-oxadiazol-5-yl}-1H-1,2,3-benzotriazole] | >6.5 | > 50% |  | <5.0 |  | > 75% | < 50% |
| CCC1(CC)CC(=O)c2cc(-c3nc(-c4cn[nH]c4)no3)ccc2O1 [Compound 469, 6-(3-(1H-pyrazol-4-yl)-1,2,4-oxadiazol-5-yl)-2,2-diethylchroman-4-one] | >6.5 | > 50% |  |  | > 10 µM | > 75% |  |
